Counter-ions that a name gives are not always drawn.
Columns and labels:
AmpC P. aeruginosa = AmpC P. aeruginosa (Pseudomonas aeruginosa, UniProt P24735); assay: β-lactamase inhibitory activity, determination of IC50 (nitrocefin hydrolysis)
OXA-11 = molecular target: T1, OXA-11 (Pseudomonas aeruginosa, UniProt Q06778); assay: as above; assay type: biochemical
T1 construct: made in house; host or cells: E. coli

[1] = test system: E. cloacae UFR85 (TEM-1, CTX-M-15, AmpC); assay: MIC of compounds alone, broth microdilution; assay type: cell-based; conditions: Enterobacter cloacae, read-out: MIC compounds of the invention alone
Method in brief: (§1)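 Cpd alone in DMSO; CAMHB, log-phase inoculum 5×10^5 cfu/mL; 35° C, 16-20 h, ambient air; MIC = lowest conc. with no visible growth (CLSI M7-A7).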

[2] = test system: E. cloacae UFR70 (TEM-1, CTX-M-15, CMY-2, OXA-1, Porin loss); assay: MIC of compounds alone, broth microdilution; assay type: cell-based; conditions: Enterobacter cloacae, read-out: MIC compounds of the invention alone
Method in brief: as §1

[3] = test system: E. cloacae 260508 (TEM-1, CTX-M-15); assay: MIC of compounds alone, broth microdilution; assay type: cell-based; conditions: Enterobacter cloacae, read-out: MIC compounds of the invention alone
Method in brief: as §1

[4] = test system: K. pneumoniae UFR68 (TEM-1, SHV-11, CTX-M-15, KPC-3); assay: MIC of compounds alone, broth microdilution; assay type: cell-based; conditions: Klebsiella pneumoniae, read-out: MIC compounds of the invention alone
Method in brief: as §1

KPC-2 = molecular target: T2, KPC-2 (Klebsiella pneumoniae, UniProt Q9F663); assay: β-lactamase inhibitory activity, determination of IC50 (nitrocefin hydrolysis); assay type: biochemical; conditions: class (A); nitrocefin 200 μM, 30 min pre-incubation; read-out: IC50 β-lactamase KPC-2
T2 construct: made in house; host or cells: E. coli

OXA-48 = molecular target: T3, OXA-48 (Klebsiella pneumoniae, UniProt Q6XEC0); assay: as above; assay type: biochemical; conditions: class (D); nitrocefin 200 μM, 30 min pre-incubation; read-out: IC50 β-lactamase OXA-48
T3 construct: made in house; host or cells: E. coli

[5] = test system: E. coli UFR41 (TEM-1, CTX-M-15, CMY-2, OXA-1, NDM-4); assay: MIC of ceftazidime (CAZ) in combination with compounds at 4 μg/mL, broth microdilution; assay type: cell-based; conditions: strain UFR41; MIC of CAZ with compound fixed at 4 μg/mL
Method in brief: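 Compounds were dissolved in DMSO and spotted onto plates. Log-phase cells were then added at 5×10^5 cfu/mL in cation-adjusted Mueller-Hinton broth, incubated 16-20 h at 35° C, and the MIC was scored visually as the lowest growth-inhibiting concentration.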

OXA-1 = molecular target: T4, OXA-1 (Escherichia coli, UniProt P13661); assay: β-lactamase inhibitory activity, determination of IC50 (nitrocefin hydrolysis); assay type: biochemical; conditions: class (D); nitrocefin 200 μM, 30 min pre-incubation; read-out: IC50 β-lactamase OXA-1
T4 construct: made in house; host or cells: E. coli

[6] = test system: E. coli 190317 (TEM-1, SHV-12, CTX-M-15, OXA-1); assay: MIC of compounds alone, broth microdilution; assay type: cell-based; conditions: Escherichia coli, read-out: MIC compounds of the invention alone
Method in brief: as §1

T2 sequence (Q9F663 25-293 limits assumed): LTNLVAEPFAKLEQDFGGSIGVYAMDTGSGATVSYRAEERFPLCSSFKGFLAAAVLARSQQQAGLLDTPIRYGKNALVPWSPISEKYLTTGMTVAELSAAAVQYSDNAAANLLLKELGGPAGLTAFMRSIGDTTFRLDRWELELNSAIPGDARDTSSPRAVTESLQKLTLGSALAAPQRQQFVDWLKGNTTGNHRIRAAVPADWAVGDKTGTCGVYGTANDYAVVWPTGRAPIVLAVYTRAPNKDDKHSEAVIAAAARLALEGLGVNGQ
T1 sequence (Q06778 21-266): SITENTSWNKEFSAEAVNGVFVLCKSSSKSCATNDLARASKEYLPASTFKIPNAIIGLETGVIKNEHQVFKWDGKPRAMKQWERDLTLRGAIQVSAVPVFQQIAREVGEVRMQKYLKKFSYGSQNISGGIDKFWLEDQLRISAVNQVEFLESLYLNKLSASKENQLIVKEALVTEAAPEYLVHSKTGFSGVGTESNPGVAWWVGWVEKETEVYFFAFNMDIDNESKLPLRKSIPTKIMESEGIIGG
Chain of AmpC P. aeruginosa (P24735 27-397): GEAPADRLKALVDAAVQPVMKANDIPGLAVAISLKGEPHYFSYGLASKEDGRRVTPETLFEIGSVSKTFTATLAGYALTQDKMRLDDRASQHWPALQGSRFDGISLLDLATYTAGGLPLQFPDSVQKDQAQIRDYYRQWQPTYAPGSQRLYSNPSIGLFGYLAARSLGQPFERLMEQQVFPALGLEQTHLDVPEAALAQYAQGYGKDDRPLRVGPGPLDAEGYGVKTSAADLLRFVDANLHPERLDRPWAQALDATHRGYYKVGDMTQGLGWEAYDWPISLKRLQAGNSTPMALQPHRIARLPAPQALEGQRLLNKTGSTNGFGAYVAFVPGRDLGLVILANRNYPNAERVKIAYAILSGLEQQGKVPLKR
T4 sequence (P13661 26-276): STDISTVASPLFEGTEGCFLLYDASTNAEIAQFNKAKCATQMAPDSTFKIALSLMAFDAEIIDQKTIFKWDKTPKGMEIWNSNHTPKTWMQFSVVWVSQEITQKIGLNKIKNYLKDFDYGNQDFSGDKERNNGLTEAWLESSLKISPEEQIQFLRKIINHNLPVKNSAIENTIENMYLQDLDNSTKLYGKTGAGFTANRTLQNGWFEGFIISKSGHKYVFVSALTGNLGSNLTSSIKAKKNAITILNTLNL
T3 sequence (Q6XEC0 23-265 limits assumed): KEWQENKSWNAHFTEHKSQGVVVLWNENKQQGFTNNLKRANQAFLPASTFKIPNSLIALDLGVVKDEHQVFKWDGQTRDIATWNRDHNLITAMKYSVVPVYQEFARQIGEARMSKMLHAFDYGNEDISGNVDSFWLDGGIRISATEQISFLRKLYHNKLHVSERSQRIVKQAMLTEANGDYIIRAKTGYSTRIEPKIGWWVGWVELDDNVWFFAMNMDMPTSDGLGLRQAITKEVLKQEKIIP

| Compound | IC50 (AmpC P. aeruginosa) [nM] | IC50 (OXA-11) [nM] | MIC [1] [µg/mL] | MIC [2] [µg/mL] | MIC [3] [µg/mL] | MIC [4] [µg/mL] | IC50 (KPC-2) [nM] | IC50 (OXA-48) [nM] | MIC combination of CAZ and compounds of the invention at 4 μg/mL [5] | IC50 (OXA-1) [nM] | MIC [6] [µg/mL] |
| --- | --- | --- | --- | --- | --- | --- | --- | --- | --- | --- | --- |
| O=C1N2CC=C(c3cnco3)C(C2)N1OS(=O)(=O)[O-].[Na+] (centres unmarked) [Example 3, Sodium [4-(oxazol-5-yl)-7-oxo-1,6-diazabicyclo[3.2.1]oct-3-en-6-yl]sulfate] | 2000 | 1100 | > 32 | 8 | 16 | > 32 | 290 | 3.5 | >64 µg/mL | 210 |  |
| Cn1cc(C2=CCN3CC2N(OS(=O)(=O)[O-])C3=O)cnc1=O.[Na+] (centres unmarked) [Example 15, Sodium [4-(N-methyl-2-oxo-pyrimidin-5-yl)-7-oxo-1,6-diazabicyclo[3.2.1]oct-3-en-6-yl] sulfate] | 3500 | 2600 | > 32 | 8 |  | > 32 | 110 | 7.9 |  | 1100 |  |
| Cn1ncc(C2=CCN3CC2N(OS(=O)(=O)[O-])C3=O)cc1=O.[Na+] (centres unmarked) [Example 19, Sodium [4-(1-methyl-6-oxo-pyridazin-4-yl)-7-oxo-1,6-diazabicyclo[3.2.1]oct-3-en-6-yl] sulfate] | 1800 | 290 | > 32 | 16 |  | > 32 | 46 | 4.7 | >64 µg/mL | 380 | 2 |
| O=C1N2CC(c3ncco3)=CC(C2)N1OS(=O)(=O)[O-].[Na+] (centres unmarked) [Example 25, Sodium [3-(oxazol-2-yl)-7-oxo-1,6-diazabicyclo[3.2.1]oct-3-en-6-yl]sulfate] | 97 | 190 | 2 | 2 | 4 |  | 30 | 6.6 | 0.25 µg/mL | 310 |  |
| NCc1cnc(C2=CC3CN(C2)C(=O)N3OS(=O)(=O)O)s1 (centres unmarked) [Example 38, [3-[5-(aminomethyl)thiazol-2-yl]-7-oxo-1,6-diazabicyclo[3.2.1]oct-3-en-6-yl] hydrogen sulfate] | 320 | 560 |  |  | > 32 |  | 19 | 7.7 | <=0.25 μg/mL | 630 | 1 |
| O=C1N2CC(c3ncco3)=C[C@H](C2)N1OS(=O)(=O)[O-].[Na+] [Example 44, Sodium [(5R)-3-(oxazol-2-yl)-7-oxo-1,6-diazabicyclo[3.2.1]oct-3-en-6-yl] sulfate] | 75 | 46 | 2 |  |  | 4 | 11 | 1.5 | <0.25 µg/mL | 87 |  |

Source: US10183943B2, “Heterocyclic compounds and their use in preventing or treating bacterial infections” (MUTABILIS, priority 2015, dated 2019)
